“Also recorded” adds a separate entry of the source. Ends that are not written are not given here.
Tests used:
Sprague-Dawley rats = experiment: In vivo blood pressure measurement in anaesthetized rats
Description: Sprague-Dawley (S-D) rats were anaesthetized with pentobarbital and a cannula was inserted into the carotid artery. The rats were kept sedated during the procedure and were injected with PTH peptides only when the blood pressure of the rats were stable. Peptides were injected through a cannula in the jugular vein, in amounts of 1, 3 and 5 or more μg/kg and the mean systolic and diastolic blood pressure was monitored continuously throughout the procedure. Results are reported with comparison to bPTH-(1-34).

[1] = tested on: right atrial tissue of Sprague-Dawley rats; experiment: In vitro atrial contractility and contraction rate measurement; conditions: Sprague-Dawley rat right atrium; for effect on contraction rate of right atrial tissue: FIGS. 24-25
Excerpt: We have also developed a method of modeling the chronotropic effects of natural and synthetic chemicals using the right atrium from Sprague-Dawleyrats and measuring the change in the force and rate of atrium contraction. This method and the effects of bovine PTH (1-34) in this system are described in Tenner et al, The Canadian Journal of Physiology and Pharmacology, Volume 61, No. 10 (1983) pp. 1162-1167. […] FIGS. 24-25 illustrate the effect of the PTH analogues of this invention as measured using this in vitro technique.
The assay was performed according to Tenner et al., Canadian Journal of Physiology and Pharmacology, Vol. 61, No. 10 (1983) pp. 1162-1167. Sprague-Dawley rats weighing between 100 and 250 g were treated with heparin (500 IU, i.p.) 15 minutes prior to decapitation. Thoracotomies were performed and the heart rapidly excised and placed in a cold physiological salt solution (PSS) having the following composition (in millimolar): NaCl, 120; KCl, 5.63; CaCl2, 2.0; MgCl2, 2.1; NAHCO3, 25.0; dextrose, 9.7. The solution was continuously aerated by a gas mixture of 95% O2 -5% CO2. The right atrium was isolated and suspended in a tissue chamber containing 20 mL of PSS at 37° C., pH 7.4. Atria were allowed to equilibrate for 1 hr under a resting tension of 1 g.
The atrial rate and force were determined from contractions recorded by a Grass FT.03 force-displacement transducer and a Grass model 79 polygraph. The Basial atrial rate f or control atria (as determined by counting the frequency of contractions) was 258±7 bpm (n=29). Basal developed force of the spontaneously beating right atria was 0.33±0.06 g (n=10) . Dose-response curves for the peptides were obtained by cumulative addition of the respective peptides. Drug dose is calculated on the basis of the final concentration in the bath solution.

[2] = tested on: rat tail artery helical strip; experiment: In vitro rat tail artery helical strip tension assay; conditions: precontracted with AVP, FIG. 20
Excerpt: We have developed a method for modeling the hypotensive effects of natural and synthetic chemical compounds using helically cut tail arteries from Sprague-Dawley rats in a Sawyer-Bartlestone chamber, measuring the change in tension with a force displacement transducer. This method and the effect of bovine PTH-(1-34) in this system is described in Blood Vessels, 22, 57 (1985). […] FIGS. 12, 16 and 20 illustrate the effect of the PTH analogues of this invention as measured using this in vitro technique. Alternatively, the strips may be precontracted using other pressor substances such as norepinephrine (NE) or KCl.
The assay was performed according to Pang et al., Blood Vessels, 22, 57 (1985). Sprague-Dawley rats were anaesthetized with pentobarbital and the tail artery excised and placed in ice-cold Krebs-Hanseleit solution (KHS) oxygenated with 95% O2, 5% CO2. […] The force generated by the strips was measured with a Grass FT03 force displacement transducer and recorded on a polygraph. […]
One to two minutes prior to addition of a peptide, the strips were contracted by addition of either arginine vasopressin (AVP), potassium chloride (KCl) or norepinephrine (NE) to the bath. The peptide was then added to the bath and the degree of relaxation measured. […] Drug dose is calculated on the basis of the final concentration in the bath solution.

[3] = tested on: UMR-106 rat osteosarcoma cells; experiment: Intracellular free calcium concentration (FURA-2) with KCl stimulation; type: cell-based; conditions: cultured UMR osteoblast cells, in the presence of KCl
Description: Because osteoporosis is a progressive syndrome, a model is required and the use of cultured osteoblasts of the UMR-106.rat osteosarcoma cells, ATCC CRL 1661 have been used as the model. Uptake of calcium in these cells has been monitored using the FURA-2 method, wherein a fluorescent dye which is specific for calcium is used as a marker for calcium change into the cells. Cells are incubated with 1-10 μM of the acetomethoxy ester of FURA-2 for 30-60 minutes. Upon uptake, the ester is hydrolyzed to release free FURA-2, which selectively binds free Ca^2+. FURA-2 has a characteristic fluorescence spectrum, which wavelength is shifted when the dye binds to free Ca^2+. According to the method, Ca^2+ which is present in the cell can be quantified by exciting the dye at two different wavelengths, 340 and 380 nm. The emission fluorescence is measured at 510 nm. […] It is conventional to report the concentration of calcium within the cell in terms of the fluorescence ratio, the 340/380 ratio. […]
Intracellular free calcium concentration was measured using the fluorescent dye FURA-2 according to the method of Grynkiewicz et al., J. Biol. Chem., 260, 3440 (1985) and Pang et al., P. N. A. S. (USA), 87, 623 (1990). […] Quantitation is obtained by exciting the dye at two different wavelengths, preferably 340 and 380 nm and measuring the fluorescent emission at 510 nm. […]

Molecule	effect on mean arterial blood pressure (Sprague-Dawley rats; anesthetized Sprague-Dawley rats, FIGS. 15, 19)	effect on contractility of right atrial tissue ([1]; FIG. 24)	effect on contraction rate of right atrial tissue [1]	relaxation of rat tail artery helical strips [2]	effect on KCl-induced intracellular [Ca2+]i increase [3]	condition of rats due to blood pressure (Sprague-Dawley rats; 5 μg/kg, Sprague-Dawley rats)
SVSEIQLMHNLGKHLNSMERVEWLAAALQDVHNF [Cs221]	least decrease in blood pressure	minimal effect	minimal effect	least relaxation	comparable to the inhibition of intracellular [Ca^2+ ]i increases by hPTH; also recorded: lower intracellular calcium increments	
PTH: parathyroid hormone (native PTH); in FIGS. 14 a-d it is bPTH-(1-34) [reference compound]					inhibits intracellar [Ca^2+ ]i increases	essentially moribund
Cs2001: human PTH 1-84, no substitution (SEQ ID NO:2) (peptide) SVSEIQLMHNLGKHLNSMERVEWLRKKLQDVHNFVALGASIAYRDGSSQRPRKKEDNVLVESHQKSLGEADKADVDVLIKAKPQ			increase the contraction rate			
